Reference: the NIST ThermoML archive (doi:10.1021/je400373d)

Legend:
[1] = Liquid, Ebulliometric method (Recirculating still)
[2] = Boiling temperature at pressure P; details: 101.33 kPa; Liquid; Ebulliometric method (Recirculating still)

OCCO [1,2-ethanediol]
[1]
Details | vapor or sublimation pressure [kPa]
422.75 K | 20
422.8 K | 20
433.66 K | 30
433.71 K | 30
441.66 K | 40
441.7 K | 40
470.47 K | 101.3

CNCCO [2-(methylamino)ethanol]
Details | Boiling temperature at pressure P [°C]
[2] | 158.1

[1]
Details | vapor or sublimation pressure [kPa]
388 K | 20
388.04 K | 20
397.89 K | 30
397.95 K | 30
405.45 K | 40
405.48 K | 40
431.2 K | 101.3

CN(CCO)CCO [N-methyldiethanolamine]
[1]
Details | vapor or sublimation pressure [kPa]
467.34 K | 20
467.4 K | 20
479.37 K | 30
479.4 K | 30
488.14 K | 40
488.17 K | 40
520.28 K | 101.3
